Values of other authors, collected in US20060148728A1 (priority 2000, published 2006).

Settings: in vivo; cited from earlier work

## COc1cc([C@@H]2c3cc4c(cc3[C@@H](O[C@@H]3O[C@@H]5CO[C@@H](C)O[C@H]5[C@H](O)[C@H]3O)[C@H]3COC(=O)[C@H]23)OCO4)cc(OC)c1O [Etoposide]
  Bioavailability of oral etoposide: 40-75%
